This is an account of results in patent US8835428B2, “Diacylglycerol acyltransferase inhibitors” (Piramal Enterprises Limited, priority 2008, dated 2014).

One assay has as its target T1, hDGAT1 (Homo sapiens, UniProt O75907).
T1 construct: host or cells: Sf9 insect cells (baculovirus); microsomal preparation
T1 sequence (O75907 1-488): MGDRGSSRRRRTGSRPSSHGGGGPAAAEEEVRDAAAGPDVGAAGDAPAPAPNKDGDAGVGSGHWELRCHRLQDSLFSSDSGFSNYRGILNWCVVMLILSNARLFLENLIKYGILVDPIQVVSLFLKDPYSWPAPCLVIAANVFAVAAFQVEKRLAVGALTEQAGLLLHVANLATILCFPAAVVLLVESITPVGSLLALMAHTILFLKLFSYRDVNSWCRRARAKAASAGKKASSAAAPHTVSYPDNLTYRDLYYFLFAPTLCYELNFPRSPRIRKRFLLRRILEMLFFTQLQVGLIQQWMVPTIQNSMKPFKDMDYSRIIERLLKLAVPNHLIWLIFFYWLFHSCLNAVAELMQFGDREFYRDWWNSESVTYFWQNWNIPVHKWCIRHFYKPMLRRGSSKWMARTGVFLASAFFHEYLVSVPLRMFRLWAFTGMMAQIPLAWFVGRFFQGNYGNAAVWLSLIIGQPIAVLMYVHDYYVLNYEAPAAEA
The assay is described as follows: In-vitro DGAT1 assay (hDGAT1 microsomes from Sf9 cells, 14C oleoyl CoA, triglyceride formation). It counts as biochemical. To be noted: At 1 μM. Summed up:
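Compounds tested in duplicate at 10, 5 and 1 μM for 10 min at 37 °C. Reaction: Sf9-expressed hDGAT1 microsomes (2.5–10 μg), [14C]oleoyl-CoA plus 409.5–1638 μM dioleoylglycerol, pH 7.4 Tris-HCl with fatty-acid-free BSA. Radiolabelled triglyceride extracted into heptane and scintillation-counted.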
As usually defined, the inhibition is the share of the control response that was lost under treatment. A higher inhibition goes with a strong effect. For the compound `Cc1ccc(NC(=O)Nc2ccc(-c3cc(C(=O)NC(C(=O)O)C(C)C)on3)cc2)cc1F` (stereo not drawn) [Example 250, 2-(3-(4-(3-(3-Fluoro-4-methylphenyl)ureido)phenyl)isoxazole-5-carboxamido)-3-methylbutanoic acid], the inhibition at 1 µM lay in the range of 75 to 100%.
On the same count and under the same terms, next, `CC(C)C(NC(=O)c1cc(-c2ccc(NC(=O)Nc3ccccc3-c3ccccc3)cc2)no1)C(=O)O` (stereo not drawn) [Example 291, 2-(3-(4-(3-Biphenyl-2-ylureido)phenyl)isoxazole-5-carboxamido)-3-methylbutanoic acid]: 75 to 100%; `CC(C)[C@@H](C(=O)O)N(C)C(=O)c1cc(-c2ccc(NC(=O)Nc3ccccc3Cl)cc2)no1` [Example 314, (S)-2-(3-(4-(3-(2-chlorophenyl)ureido)phenyl)-N-methylisoxazole-5-carboxamido)-3-methylbutanoic acid]: 50 to 75%.
Still for that read-out and setting: next, `CC(C)[C@H](NC(=O)c1cc(-c2ccc(NC(=O)Nc3cc(F)ccc3F)cc2)no1)C(=O)O` [Example 199, (S)-2-(3-(4-(3-(2,5-Difluorophenyl)ureido)phenyl)isoxazole-5-carboxamido)-3-methylbutanoic acid]: 75 to 100%.
Turning to `CC(C)C(NC(=O)c1cc(-c2ccc(OCc3ccc(F)cc3F)cc2)no1)C(=O)O` (stereo not drawn) [Example 332], the “% inhibition of hDGAT1” value is “+ (>0% Inhibition ≦50)”.
In turn, `COC(=O)[C@H](NC(=O)c1cc(-c2ccc(NC(=O)Nc3ccccc3F)cc2)no1)C(C)C` [Example 257, (R)-Methyl 2-(3-(4-(3-(2-fluorophenyl)ureido)phenyl)isoxazole-5-carboxamido)-3-methylbutanoate] gave an inhibition at 1 µM of 0 to 50%.
`C=C(NC(=O)c1cc(-c2ccc(NC(=O)Nc3ccc(C)cc3)cc2)no1)C(=O)OC` [Example 303, Methyl 2-(3-(4-(3-p-tolylureido)phenyl)isoxazole-5-carboxamido) acrylate]: the “% inhibition of hDGAT1” value is “+ (>0% Inhibition ≦50)”.
On to `CC(C)[C@H](NC(=O)c1cc(-c2ccc(NC(=O)Nc3ccc(Cl)cc3F)cc2)no1)C(=O)O` [Example 193, (S)-2-(3-(4-(3-(4-chloro-2-fluorophenyl)ureido)phenyl)isoxazole-5-carboxamido)-3-methylbutanoic acid], for which the inhibition at 1 µM lay in the range of 75 to 100%.
`COC(=O)[C@H](C(C)C)N(C)C(=O)c1cc(-c2ccc(NC(=O)NC3CCCCC3)cc2)no1` [Example 311, (S)-methyl 2-(3-(4-(3-cyclohexylureido)phenyl)-N-methylisoxazole-5-carboxamido)-3-methylbutanoate] yielded an inhibition at 1 µM of 50 to 75%.

Still in this assay, the particulars now being: At 5 μM.
Regarding `COC(=O)C(Cc1ccccc1)NC(=O)c1cc(-c2ccc(NC(=O)Nc3ccccc3F)cc2)no1` (stereo not drawn) [Example 241, Methyl 2-(3-(4-(3-(2-fluorophenyl)ureido)phenyl)isoxazole-5-carboxamido)-3-phenylpropanoate], the inhibition at 5 µM fell in the range of 0 to 50%.
Still for that read-out and setting: next, `CC(C)[C@H](NC(=O)c1cc(-c2ccc(NC(=S)Nc3ccccc3F)cc2)no1)C(=O)O` [Example 270, (S)-2-(3-(4-(3-(2-fluorophenyl)thioureido)phenyl)isoxazole-5-carboxamido)-3-methylbutanoic acid]: 50 to 75%.
Still for that read-out and setting: next, `COc1ccc(NC(=O)Nc2ccc(-c3noc(C(=O)N[C@H](C(=O)O)C(C)C)n3)cc2)cc1` [Example 345, (S)-2-(3-(4-(3-(4-methoxyphenyl)ureido)phenyl)-1,2,4-oxadiazole-5-carboxamido)-3-methylbutanoic acid]: 50 to 75%; `Cc1cc(F)ccc1NC(=O)Nc1ccc(-c2cc(C(=O)NC(C(=O)O)C(C)C)on2)cc1` (stereo not drawn) [Example 285, 2-(3-(4-(3-(4-fluoro-2-methylphenyl)ureido)phenyl)isoxazole-5-carboxamido)-3-methylbutanoic acid]: 75 to 100%; `COC(=O)C(NC(=O)c1cc(-c2ccc(NC(=O)Nc3ccccn3)cc2)no1)C(C)C` (stereo not drawn) [Example 279, Methyl 3-methyl-2-(3-(4-(3-pyridin-2-ylureido)phenyl)isoxazole-5-carboxamido)butanoate]: 0 to 50%.
Turning to `COC(=O)C(Cc1ccccc1)NC(=O)c1cc(-c2ccc(NC(=O)Nc3ccc(F)cc3F)cc2)no1` (stereo not drawn) [Example 245, Methyl 2-(3-(4-(3-(2,4-difluorophenyl)ureido)phenyl)isoxazole-5-carboxamido)-3-phenylpropanoate], the inhibition at 5 µM lay within 0 to 50%.
For the compound `COC(=O)C(Cc1ccccc1)NC(=O)c1cc(-c2ccc(NC(=O)Nc3ccc(C)cc3)cc2)no1` (stereo not drawn) [Example 243, Methyl 3-phenyl-2-(3-(4-(3-p-tolylureido)phenyl)isoxazole-5-carboxamido) propanoate], the “% inhibition of hDGAT1” value was “+ (>0% Inhibition ≦50)”.
For `COC(=O)[C@H](Cc1ccc(O)cc1)NC(=O)c1cc(-c2ccc(NC(=O)Nc3ccc(C)cc3)cc2)no1` [Example 272, (S)-Methyl 3-(4-hydroxyphenyl)-2-(3-(4-(3-p-tolylureido)phenyl)isoxazole-5-carboxamido)propanoate], the inhibition at 5 µM lay in the range of 0 to 50%.
For `O=C(Nc1ccc(-c2cc(C(=O)N[C@@H](CO)C(=O)O)on2)cc1)Nc1ccccc1F` [Example 299, (S)-2-(3-(4-(3-(2-Fluorophenyl)ureido)phenyl)isoxazole-5-carboxamido)-3-hydroxypropanoic acid], the inhibition at 5 µM lay within 50 to 75%.

Still in this assay, the particulars now being: At 10 μM.
`CC(C)[C@H](NC(=O)c1cc(-c2ccc(NC(=O)NC3CCCCC3)cc2)no1)C(=O)O` [Example 81, (S)-2-({3-[4-(3-cyclohexyl-ureido)-phenyl]-isoxazole-5-carbonyl}-amino)-3-methyl-butyric acid]: the inhibition at 10 µM lay within 75 to 100%.
Same read-out and setting: next, `COC(=O)C(NC(=O)c1cc(-c2ccc(NC(=O)Nc3ccccc3F)cc2)no1)C(C)C` (stereo not drawn) [Example 105, 2-[(3-{4-[3-(2-Fluoro-phenyl)ureido]-phenyl}-isoxazole-5-carbonyl)-amino]-3-methyl-butyric acid methyl ester]: 50 to 75%; `COC[C@H](NC(=S)c1cc(-c2cccc(Nc3nc4ccc(F)cc4s3)c2)no1)C(=O)OC` [Example 30, (S)-2-({3-[3-(6-Fluoro-benzothiazol-2-ylamino)-phenyl]-isoxazole-5-carbothioyl}-amino)-3-methoxy-propionic acid methyl ester]: 0 to 50%; `COC(=O)[C@@H](NC(=O)c1cc(-c2ccc(Nc3nc4ccc(F)cc4s3)cc2)no1)C(C)C` [Example 5, (S)-2-({3-[4-(6-Fluoro-benzothiazol-2-ylamino)-phenyl]-isoxazole-5-carbonyl}-amino)-3-methyl-butyric acid methyl ester]: 50 to 75%.
Still for that read-out and setting: next, `CCOC(=O)c1cc(-c2ccc(Nc3nc4ccc(F)cc4s3)cc2)no1` [Example 1, 3-[4-(6-Fluoro-benzothiazol-2-ylamino)-phenyl]-isoxazole-5-carboxylic acid ethyl ester]: 50 to 75%; `COC(=O)[C@@H](NC(=O)c1cc(-c2ccc(Nc3nc4ccc(F)cc4s3)cc2)no1)c1ccccc1` [Example 52, (S)-({3-[4-(6-Fluoro-benzothiazol-2-ylamino)-phenyl]-isoxazole-5-carbonyl}-amino)-phenyl-acetic acid methyl ester]: 0 to 50%.
The same measure, in the same setting: next, `COC(=O)[C@@H](NC(=O)c1cc(-c2ccc(NC(=O)Nc3ccc(F)cc3)cc2)no1)C(C)C` [Example 84, (S)-2-[(3-{4-[3-(4-Fluoro-phenyl}-ureido]-phenyl)-isoxazole-5-carbonyl)-amino]-3-methyl-butyric acid methyl ester]: 50 to 75%; `CC(NC(=O)c1cc(-c2ccc(NC(=O)Nc3ccc(F)cc3)cc2)no1)C(=O)O` (stereo not drawn) [Example 116, 2-(3-(4-(3-(4-fluorophenyl)ureido)phenyl)isoxazole-5-carboxamido) propanoic acid]: 75 to 100%.
`COC(=O)[C@@H](NC(=S)c1cc(-c2ccc(Nc3nc4ccc(F)cc4s3)cc2)no1)c1ccccc1` [Example 54, (S)-({3-[4-(6-Fluoro-benzothiazol-2-ylamino)-phenyl]-isoxazole-5-carbothioyl}-amino)-phenyl-acetic acid methyl ester]: the inhibition at 10 µM is 0 to 50%.
As for `Cc1cc(NC(=O)Nc2ccc(F)cc2F)ccc1-c1cc(C(=O)NC(CC(C)C)C(=O)O)on1` (stereo not drawn) [Example 140, 2-(3-(4-(3-(2,4-difluorophenyl)ureido)-2-methylphenyl)isoxazole-5-carboxamido)-4-methylpentanoic acid], the inhibition at 10 µM was 75 to 100%.
The same measure, in the same setting: next, `NC(=O)c1cc(-c2ccc(Nc3nc4ccc(F)cc4s3)cc2)no1` [Example 3, 3-[4-(6-Fluoro-benzothiazol-2-ylamino)-phenyl]-isoxazole-5-carboxylic acid amide]: 0 to 50%.
Consider `CC(C)[C@H](NC(=O)c1c(-c2ccc(Nc3nc4ccc(F)cc4s3)cc2)noc1-c1ccccc1)C(=O)O` [Example 69, (S)-2-({3-[4-(6-Fluoro-benzothiazol-2-ylamino)-phenyl]-5-phenyl-isoxazole-4-carbonyl}-amino)-3-methyl-butyric acid], for which the inhibition at 10 µM was in the range of 0 to 50%.
